Data as given in the NIST ThermoML archive (doi:10.1016/j.jct.2011.08.028).

What was measured:
[1] = xn = mol fraction of the nth substance listed; conditions: 298.15 K, 101 kPa, Liquid; for speed of sound: Sing-around technique in a fixed-path interferometer; for mass density: Vibrating tube method
[2] = refractive index (Na D-line) (dimensionless); xn = mol fraction of the nth substance listed; conditions: 298.15 K, 101 kPa, Liquid, Standard Abbe refractometry
[3] = Liquid; for speed of sound: Sing-around technique in a fixed-path interferometer; for mass density: Vibrating tube method; for viscosity: Capillary tube (Ostwald / Ubbelohde) method
[4] = refractive index (Na D-line) (dimensionless); conditions: 101.33 kPa, Liquid, Standard Abbe refractometry

CCCO [propan-1-ol] + CCCn1cc[n+](C)c1.O=S(=O)([N-]S(=O)(=O)C(F)(F)F)C(F)(F)F
x1 = 1
Conditions	mass density [kg/m3]	refractive index	speed of sound [m/s]
[1]	800.09	–	1207
[2]	–	1.38307	–

CO [methanol]
[3], 298.15 K, 101 kPa
Conditions	mass density [kg/m3]	speed of sound [m/s]
–	786.59	1103

Conditions	refractive index
[4], 298.15 K	1.32648

CC(C)O [propan-2-ol] + CCCn1cc[n+](C)c1.O=S(=O)([N-]S(=O)(=O)C(F)(F)F)C(F)(F)F
x1 = 1
Conditions	mass density [kg/m3]	refractive index	speed of sound [m/s]
[1]	780.98	–	1139
[2]	–	1.375	–

CO [methanol] + CCCn1cc[n+](C)c1.O=S(=O)([N-]S(=O)(=O)C(F)(F)F)C(F)(F)F
x1 = 1
Conditions	mass density [kg/m3]	refractive index	speed of sound [m/s]
[1]	786.59	–	1103
[2]	–	1.32648	–

CCCn1cc[n+](C)c1.O=S(=O)([N-]S(=O)(=O)C(F)(F)F)C(F)(F)F + CCCO
Conditions	mass density, [1] [kg/m3]	refractive index, [2]	speed of sound, [1] [m/s]
x2 = 0	1474.44	1.42525	1232
x2 = 0.0787	1457.82	1.42424	1228
x2 = 0.1022	1452.69	1.42391	1227
x2 = 0.247	1417.04	1.42164	1220
x2 = 0.39	1372.22	1.41887	1212
x2 = 0.442	1352.74	1.41758	1208
x2 = 0.4877	1333.71	1.41661	1205
x2 = 0.569	1294.62	1.41422	1198
x2 = 0.6455	1250.12	1.41148	1191
x2 = 0.703	1209.58	1.40897	1187
x2 = 0.75	1170.92	1.40667	1183
x2 = 0.8048	1117.65	1.40345	1179
x2 = 0.8492	1066.16	1.40025	1178

CCCn1cc[n+](C)c1.O=S(=O)([N-]S(=O)(=O)C(F)(F)F)C(F)(F)F + CC(C)O
Conditions	mass density, [1] [kg/m3]	refractive index, [2]	speed of sound, [1] [m/s]
x2 = 0	1474.44	1.42525	1232
x2 = 0.0493	1463.7	1.42452	1228
x2 = 0.0921	1454.1	1.42385	1226
x2 = 0.291	1401.23	1.42016	1212
x2 = 0.4093	1360.46	1.41732	1202
x2 = 0.5071	1318.46	1.41439	1191
x2 = 0.6113	1262.2	1.41043	1178
x2 = 0.6964	1203.91	1.40624	1166
x2 = 0.803	1106.76	1.39926	1148
x2 = 0.9009	979.02	1.39013	1135
x2 = 0.9503	892.06	1.38375	1134

CCO [ethanol] + CCCn1cc[n+](C)c1.O=S(=O)([N-]S(=O)(=O)C(F)(F)F)C(F)(F)F
x1 = 1
Conditions	mass density [kg/m3]	refractive index	speed of sound [m/s]
[1]	785.33	–	1144
[2]	–	1.35929	–

CCCn1cc[n+](C)c1.O=S(=O)([N-]S(=O)(=O)C(F)(F)F)C(F)(F)F + CCO
Conditions	mass density, [1] [kg/m3]	refractive index, [2]	speed of sound, [1] [m/s]
x2 = 0	1474.44	1.42525	1232
x2 = 0.053	1465.87	1.42443	1230
x2 = 0.099	1458.19	1.42378	1227
x2 = 0.1914	1441.04	1.42214	1223
x2 = 0.2948	1418.06	1.42008	1216
x2 = 0.3909	1391.82	1.41788	1209
x2 = 0.4992	1354.59	1.41421	1200
x2 = 0.5912	1313.64	1.41045	1190
x2 = 0.6978	1249.77	1.4045	1176
x2 = 0.7938	1167.28	1.39689	1162
x2 = 0.895	1033.88	1.38426	1146
x2 = 0.9431	940.65	1.37524	1142

CCCO [propan-1-ol]
[3], 298.15 K, 101 kPa
Conditions	mass density [kg/m3]	speed of sound [m/s]
–	800.09	1207

Conditions	refractive index
[4], 298.15 K	1.38307

CCCn1cc[n+](C)c1.O=S(=O)([N-]S(=O)(=O)C(F)(F)F)C(F)(F)F
[3], 101.33 kPa
Conditions	mass density [kg/m3]	speed of sound [m/s]	viscosity [mPa·s]
293.15 K	1479.39	1243	–
298.15 K	1474.44	1232	43.7
303.15 K	1469.5	1221	35.68
308.15 K	1464.58	1210	29.51
313.15 K	1459.67	1199	24.77
318.15 K	1454.78	1188	21.01
323.15 K	1449.91	1178	18.04
328.15 K	1445.06	1168	15.59
333.15 K	1440.23	1157	13.63
338.15 K	1435.42	1147	12.02
343.15 K	1430.62	1137	10.66

[4]
Conditions	refractive index
293.15 K	1.42669
298.15 K	1.42525
303.15 K	1.42378
308.15 K	1.42224
313.15 K	1.42076
318.15 K	1.41926
323.15 K	1.41776
328.15 K	1.41625
333.15 K	1.41479
338.15 K	1.41334
343.15 K	1.41185

CC(C)O [propan-2-ol]
[3], 298.15 K, 101 kPa
Conditions	mass density [kg/m3]	speed of sound [m/s]
–	780.98	1139

Conditions	refractive index
[4], 298.15 K	1.375

CCO [ethanol]
[3], 298.15 K, 101 kPa
Conditions	mass density [kg/m3]	speed of sound [m/s]
–	785.33	1144

Conditions	refractive index
[4], 298.15 K	1.35929

CCCn1cc[n+](C)c1.O=S(=O)([N-]S(=O)(=O)C(F)(F)F)C(F)(F)F + CO
Conditions	mass density, [1] [kg/m3]	refractive index, [2]	speed of sound, [1] [m/s]
x2 = 0	1474.44	1.42525	1232
x2 = 0.099	1463.12	1.4237	1228
x2 = 0.2012	1449.69	1.42185	1223
x2 = 0.2973	1434.29	1.41964	1218
x2 = 0.4068	1411.9	1.41652	1211
x2 = 0.5067	1385.1	1.41274	1203
x2 = 0.601	1351.31	1.40806	1192
x2 = 0.6936	1305.17	1.40193	1179
x2 = 0.7948	1228.8	1.39113	1159
x2 = 0.9009	1085.51	1.37097	1129
x2 = 0.9499	972.1	1.35417	1115
